Consider 17 molecules from patent US10829481B2, “Benzimidazole derivatives as modulators of ROR-gamma” (Vitae Pharmaceuticals, LLC, priority 2016, dated 2020).

For test [1], the target named is recombinant RORγ Ligand Binding Domain (LBD) protein (Homo sapiens (Human), UniProt P51449). Put plainly: Radio-Ligand RORγ Binding Assay (Assay 1). The conditions noted are these: competition with 25-hydroxy [26,27-3H]-cholesterol, SPA. In outline:
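Scintillation proximity competition against 25-hydroxy [26,27-^3H]-cholesterol (8.6 nM solution) for 6×His-GST-tagged RORγ LBD (24 nM solution) in HEPES pH 7.4 with CHAPS, β-octylglucopyranoside and DTT; semi-log compound dilutions, ~1 h total at rt with poly-Lys YSi beads. IC50 from four-parameter fit; Ki derived from [RL] and radioligand KD.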

Test [2] concerns the target full-length RORγt in Jurkat cells (Homo sapiens (Human), UniProt P51449). Put plainly: RORγt 5×RORE Assay in Jurkat Cells (Assay 2). The format is cell-based. The conditions noted are these: 5×RORE Nanoluc luciferase reporter.

pIC50, pKi: −log10 of the molar value.

Sequence of full-length RORγt in Jurkat cells (P51449 other isoform, or with tags, fused parts or gaps): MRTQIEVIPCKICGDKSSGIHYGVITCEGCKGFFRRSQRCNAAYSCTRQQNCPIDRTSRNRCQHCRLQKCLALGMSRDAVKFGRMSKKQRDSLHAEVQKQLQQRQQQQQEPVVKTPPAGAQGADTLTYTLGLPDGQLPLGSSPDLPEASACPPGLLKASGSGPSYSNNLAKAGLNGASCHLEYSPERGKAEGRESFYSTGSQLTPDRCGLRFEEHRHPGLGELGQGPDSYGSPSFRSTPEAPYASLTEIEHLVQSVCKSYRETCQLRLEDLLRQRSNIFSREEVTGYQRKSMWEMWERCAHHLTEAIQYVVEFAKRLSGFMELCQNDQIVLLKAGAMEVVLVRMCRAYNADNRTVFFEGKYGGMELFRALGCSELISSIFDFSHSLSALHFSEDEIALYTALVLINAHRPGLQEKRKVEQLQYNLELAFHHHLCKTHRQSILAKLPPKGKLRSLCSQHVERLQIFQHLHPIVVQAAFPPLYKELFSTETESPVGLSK
Sequence of recombinant RORγ Ligand Binding Domain (LBD) protein (P51449 269-508): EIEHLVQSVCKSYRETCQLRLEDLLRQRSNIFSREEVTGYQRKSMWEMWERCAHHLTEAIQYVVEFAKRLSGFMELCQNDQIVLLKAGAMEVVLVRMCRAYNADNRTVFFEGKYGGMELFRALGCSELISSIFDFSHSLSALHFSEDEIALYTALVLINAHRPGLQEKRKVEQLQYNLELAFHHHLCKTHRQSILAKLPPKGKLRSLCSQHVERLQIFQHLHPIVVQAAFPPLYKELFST

For the molecule `COc1cc(Cn2c(C(F)(F)F)nc3cc(C(=O)NCc4ccc(S(=O)(=O)CCO)cc4)ccc32)cc(OC)c1` [I-124, 1-(3,5-dimethoxybenzyl)-N-(4-((2-hydroxyethyl)sulfonyl)benzyl)-2-(trifluoromethyl)-1H-benzo[d]imidazole-5-carboxamide], the pKi (usually the Ki on a negative log10 scale, so that one unit is a factor of ten) in test [1] is above 7.00. Moreover, in test [2], the pIC50 – broadly, the negative decadic logarithm of the IC50, by convention in mol/L – is below 6.00.

With `CCc1nc2cc(C(=O)NCc3ccc(S(=O)(=O)CC)cc3)ccc2n1[C@@H](C)c1cccc2c1OC(F)(F)O2` [I-125.1, (S)-1-(1-(2,2-difluorobenzo[d][1,3]dioxol-4-yl)ethyl)-2-ethyl-N-(4-(ethylsulfonyl)benzyl)-1H-benzo[d]imidazole-5-carboxamide], in test [1], the pKi was above 7.00. In addition, the pIC50 in test [2] was below 6.00.

Consider `CCc1nc2cc(C(=O)NCc3ccc(S(=O)(=O)CC)cc3)ccc2n1[C@H](C)c1cccc2c1OC(F)(F)O2` [I-125.2, (R)-1-(1-(2,2-difluorobenzo[d][1,3]dioxol-4-yl)ethyl)-2-ethyl-N-(4-(ethylsulfonyl)benzyl)-1H-benzo[d]imidazole-5-carboxamide], for which the pKi in test [1] was above 7.00. The pIC50 in test [2] was above 7.00.

For the molecule `CCS(=O)(=O)c1ccc(CNC(=O)c2ccc3c(c2)nc(C(F)(F)F)n3Cc2cccc3c2OC(F)(F)O3)c(O)c1` [I-126, 1-((2,2-difluorobenzo[d][1,3]dioxol-4-yl)methyl)-N-(4-(ethylsulfonyl)-2-hydroxybenzyl)-2-(trifluoromethyl)-1H-benzo[d]imidazole-5-carboxamide], the pKi in test [1] is above 7.00. Besides, the pIC50 in test [2] was above 7.00.

In the case of `COC(=O)CS(=O)(=O)N1CCC(CNC(=O)c2ccc3c(c2)nc(C(F)(F)F)n3Cc2cccc3[nH]ncc23)CC1` [I-127, methyl 2-((4-((1-((1H-indazol-4-yl)methyl)-2-(trifluoromethyl)-1H-benzo[d]imidazole-5-carboxamido)methyl)piperidin-1-yl)sulfonyl)acetate], the pKi in test [1] was above 7.00. This molecule had a pIC50 in test [2] above 7.00.

Consider `CCS(=O)(=O)c1ccc(CNC(=O)c2ccc3c(c2)nc(C(F)(F)F)n3Cc2cc(OC)cc(OC)c2)nc1` [I-128, 1-(3,5-dimethoxybenzyl)-N-((5-(ethylsulfonyl)pyridin-2-yl)methyl)-2-(trifluoromethyl)-1H-benzo[d]imidazole-5-carboxamide], for which, in test [1], the negative logarithm of the Ki (pKi) was above 7.00. In test [2], the negative-log IC50 (pIC50) is below 6.00.

Take `CCS(=O)(=O)c1ccc([C@H](CO)NC(=O)c2ccc3c(c2)nc(C(F)(F)F)n3Cc2cccc3c2OC(F)(F)O3)nc1` [I-130.1, (R)-1-((2,2-difluorobenzo[d][1,3]dioxol-4-yl)methyl)-N-(1-(5-(ethylsulfonyl)pyridin-2-yl)-2-hydroxyethyl)-2-(trifluoromethyl)-1H-benzo[d]imidazole-5-carboxamide]: in test [1], the pKi is above 7.00. In test [2], this molecule showed a pIC50 above 7.00.

Regarding `CCS(=O)(=O)c1ccc([C@@H](CO)NC(=O)c2ccc3c(c2)nc(C(F)(F)F)n3Cc2cccc3c2OC(F)(F)O3)nc1` [I-130.2, (S)-1-((2,2-difluorobenzo[d][1,3]dioxol-4-yl)methyl)-N-(1-(5-(ethylsulfonyl)pyridin-2-yl)-2-hydroxyethyl)-2-(trifluoromethyl)-1H-benzo[d]imidazole-5-carboxamide], the pKi in test [1] is above 7.00. The molecule also showed a pIC50 in test [2] above 7.00.

For the molecule `CCS(=O)(=O)c1ccc([C@H](CO)NC(=O)c2ccc3c(c2)nc(C(F)F)n3Cc2cccc3c2OC(F)(F)O3)nc1` [I-131.1, (R)-1-((2,2-difluorobenzo[d][1,3]dioxol-4-yl)methyl)-2-(difluoromethyl)-N-(1-(5-(ethylsulfonyl)pyridin-2-yl)-2-hydroxyethyl)-1H-benzo[d]imidazole-5-carboxamide], in test [1], the pKi is above 7.00. In test [2], the pIC50 is above 7.00.

On to `CCS(=O)(=O)c1ccc([C@@H](CO)NC(=O)c2ccc3c(c2)nc(C(F)F)n3Cc2cccc3c2OC(F)(F)O3)nc1` [I-131.2, (S)-1-((2,2-difluorobenzo[d][1,3]dioxol-4-yl)methyl)-2-(difluoromethyl)-N-(1-(5-(ethylsulfonyl)pyridin-2-yl)-2-hydroxyethyl)-1H-benzo[d]imidazole-5-carboxamide], for which, in test [1], the pKi is above 7.00. This molecule also had a pIC50 in test [2] of 6.00 to 7.00.

`CCS(=O)(=O)c1ccc([C@H](CO)NC(=O)c2ccc3c(c2)nc(C2CCC2)n3Cc2cccc3c2OC(F)(F)O3)nc1` [I-132.1, (R)-2-cyclobutyl-1-((2,2-difluorobenzo[d][1,3]dioxol-4-yl)methyl)-N-(1-(5-(ethylsulfonyl)pyridin-2-yl)-2-hydroxyethyl)-1H-benzo[d]imidazole-5-carboxamide]: in test [1], the negative-log Ki (pKi) was above 7.00. In test [2], this molecule showed a pIC50 above 7.00.

On to `CCS(=O)(=O)c1ccc([C@@H](CO)NC(=O)c2ccc3c(c2)nc(C2CCC2)n3Cc2cccc3c2OC(F)(F)O3)nc1` [I-132.2, (S)-2-cyclobutyl-1-((2,2-difluorobenzo[d][1,3]dioxol-4-yl)methyl)-N-(1-(5-(ethylsulfonyl)pyridin-2-yl)-2-hydroxyethyl)-1H-benzo[d]imidazole-5-carboxamide], for which, in test [1], the pKi is above 7.00. This molecule also had a pIC50 in test [2] above 7.00.

Take `CCS(=O)(=O)c1ccc([C@H](CO)NC(=O)c2ccc3c(c2)nc(C2CC2)n3Cc2cccc3c2OC(F)(F)O3)nc1` [I-133.1, (R)-2-cyclopropyl-1-((2,2-difluorobenzo[d][1,3]dioxol-4-yl)methyl)-N-(1-(5-(ethylsulfonyl)pyridin-2-yl)-2-hydroxyethyl)-1H-benzo[d]imidazole-5-carboxamide]: in test [1], the pKi was above 7.00. Further, the pIC50 in test [2] was above 7.00.

Take `CCS(=O)(=O)c1ccc([C@H](CO)NC(=O)c2ccc3c(c2)nc(C2(F)CC2)n3Cc2cccc3c2OC(F)(F)O3)nc1` [I-134.1, (R)-1-((2,2-difluorobenzo[d][1,3]dioxol-4-yl)methyl)-N-(1-(5-(ethylsulfonyl)pyridin-2-yl)-2-hydroxyethyl)-2-(1-fluorocyclopropyl)-1H-benzo[d]imidazole-5-carboxamide]: the pKi in test [1] is above 7.00. In addition, the pIC50 in test [2] is above 7.00.

Consider `CCS(=O)(=O)c1ccc([C@@H](CO)NC(=O)c2ccc3c(c2)nc(C2(F)CC2)n3Cc2cccc3c2OC(F)(F)O3)nc1` [I-134.2, (S)-1-((2,2-difluorobenzo[d][1,3]dioxol-4-yl)methyl)-N-(1-(5-(ethylsulfonyl)pyridin-2-yl)-2-hydroxyethyl)-2-(1-fluorocyclopropyl)-1H-benzo[d]imidazole-5-carboxamide], for which the pKi in test [1] was above 7.00. Also, the pIC50 in test [2] is above 7.00.

As for `CCS(=O)(=O)c1ccc(CNC(=O)c2ccc3c(c2)nc(C(F)(F)F)n3Cc2cccc(OC)c2F)cc1` [I-136, N-(4-(ethylsulfonyl)benzyl)-1-(2-fluoro-3-methoxybenzyl)-2-(trifluoromethyl)-1H-benzo[d]imidazole-5-carboxamide], the pKi in test [1] was above 7.00. The molecule also showed a pIC50 in test [2] above 7.00.

`CCS(=O)(=O)c1ccc(CNC(=O)c2ccc3c(c2)nc(C(F)(F)F)n3Cc2cccc3cnn(C)c23)cc1` [I-137, N-(4-(ethylsulfonyl)benzyl)-1-((1-methyl-1H-indazol-7-yl)methyl)-2-(trifluoromethyl)-1H-benzo[d]imidazole-5-carboxamide]: in test [1], the pKi is above 7.00. The pIC50 in test [2] was above 7.00.
